Several values for one entry are separate records, joined by “and”; a condition that tells them apart may be missing. Equal values may be shown once. Bounds are passed on as bounds.

Series [1] can be described thus: Optical deterioration of fluorescent intensity of film under 340 nm irradiation. It counts as physicochemical. The settings on record: irradiated with 340 nm light for 1,000 sec, slit 1.5 nm. On the procedure: A film of the ink was formed on an ITO transparent electroconductive glass by spin coating and the fluorescent spectrum intensity was measured by a fluorophotometer (trade name: RF-5300PC, manufactured by Shimadzu Corporation) at an excitation spectrum of 340 nm.
Using a fluorophotometer (trade name: RF-5300PC, manufactured by Shimadzu Corporation) wherein the width of the slit for excitation light was changed to 1.5 nm, this light emitting film was successively irradiated with light having a wavelength of 340 nm for 1,000 sec, with the result that a single film of the isomer component 1 of the compound 2 was decreased in fluorescent intensity to 57% of the initial intensity and the single film of BTrSBF was decreased to 64% of the initial intensity whereas the film obtained by doping BTrSBF with 5 wt % of the compound 2 kept 74% of the initial intensity, showing that this film had the effect of suppressing the optical deterioration of fluorescent intensity.

Series [2] in a line: Energy level: ionization potential of spin coat film by surface analyzer AC-1, electron affinity by subtracting absorption-edge energy. Format: physicochemical. The settings on record: for electron affinity: ionization potential minus absorption-edge energy; for ionization potential: spin coat film on ITO glass, surface analyzer AC-1; for Eg: energy difference between ionization potential and electron affinity. On the procedure: A solution prepared by dissolving 1.3 mg of the compound 1 in 1 ml of toluene was applied to an ITO transparent electroconductive glass by spin coating to measure the ionization potential by a surface analyzer AC-1 manufactured by Riken Keiki Co., Ltd., to find that the ionization potential was 5.9 eV.
A solution prepared by dissolving 10 mg of the isomer component 1 of the compound 2 in 1 ml of toluene was applied to an ITO transparent electroconductive glass by spin coating to measure the ionization potential by a surface analyzer AC-1 manufactured by Riken Keiki Co., Ltd., to find that the ionization potential was 5.9 eV.
A solution prepared by dissolving 10 mg of the compound 1 in 1 ml of toluene was applied to an ITO transparent electroconductive glass by spin coating to measure the ionization potential by a surface analyzer AC-1 manufactured by Riken Keiki Co., Ltd., to find that the ionization potential was 5.9 eV. The electron affinity obtained by subtracting the absorption-edge energy from the ionization potential was 3.0 eV.
A solution prepared by dissolving 10 mg of the compound 31 in 1 ml of toluene was applied to an ITO transparent electroconductive glass by spin coating to measure the ionization potential by a surface analyzer AC-1 manufactured by Riken Keiki Co., Ltd., to find that the ionization potential was 6.2 eV. The electron affinity obtained by subtracting absorption-edge energy from the ionization potential was 3.0 eV.
A solution prepared by dissolving 10 mg of the compound 32 in 1 ml of toluene was applied to an ITO transparent electroconductive glass by spin coating to measure the ionization potential by a surface analyzer AC-1 manufactured by Riken Keiki Co., Ltd., to find that the ionization potential was 6.2 eV. The electron affinity obtained by subtracting absorption-edge energy from the ionization potential was 3.0 eV.

Series [3] in a line: Solubility in toluene / organic solvents at ambient temperature. Format: physicochemical. The following applies: for solubility (concentration dissolved in toluene): ambient temperature; for solubility in organic solvents: aromatic solvents such as xylene, anisole, tetralin. On the procedure: The compound 1 was dissolved with a concentration of 1.3 mg in 1 ml of toluene at ambient temperature and used as a light-emitting dopant for a blue light-emitting layer ink, which could be applied to form a film.
The isomer component 1 of compound 2 was dissolved in a concentration of 34 mg in 1 ml of toluene at ambient temperature and used for ink that formed each layer of an organic EL as a carrier transport layer, each color light-emitting host and light-emitting dopant, thereby enabling the formation of a coating film.
The compound 3 was dissolved in a concentration of 150 mg in 1 ml of toluene at ambient temperature and used for ink that formed each layer of an organic EL as a carrier transport layer, each color light-emitting host, or blue light-emitting dopant, thereby enabling the formation of a coating film.
Further, the compound 31 can be dissolved in various mixture solvents to be matched with the viscosities of various printing systems.
The compound 32 was soluble in a concentration of 6 mg in 1 ml of toluene at ambient temperature. When the compound 32 was gradually added to dissolve while heating on a hot plate, 34 mg of the compound 32 was dissolved when the temperature was returned to ambient temperature. The compound 32 can be used as an electron transportable carrier transport material and may be dissolved in an organic solvent such as toluene, xylene, anisole, and tetralin to add the obtained solution to ink for forming each layer of an organic EL, thereby forming a coating film.

The nature of series [4]: Thermal analysis by DSC (glass transition temperature). It counts as physicochemical. The following applies: for thermal stability: second heatup after rapid cooling, no exothermic or endothermic peak except Tg. As to the method:
The glass transition temperature (Tg), crystallization temperature (Tc), and melting point (Tm) of the compound 1 were measured by EXSTAR6000 Series DSC6200 manufactured by Seiko Instruments Inc., at a temperature rise rate of 20° C./min. […] Tm was 493° C. to 513° C. (peak 504° C.).
The glass transition temperature (Tg), crystallization temperature (Tc), and melting point (Tm) of the isomer component 1 of the compound 2 were measured by an EXSTAR6000Series DSC6200 manufactured by Seiko Instruments Inc., at a temperature rise rate of 20° C./min.
The Tg, Tc, and Tm of the compound 33 measured by DSC were 240° C., 323° C., and 403° C. respectively.

The conditions of series [5]: background section, DSC; cited from earlier work.
Series [6] can be described thus: Fluorescent spectrum of spin coat film (fluorophotometer RF-5300PC). It counts as physicochemical. The following applies: for fluorescent peak wavelength: single-compound spin coat film on ITO transparent electroconductive glass, excitation 330-340 nm. As to the method:
The fluorescent spectrum of a spin coat film of the compound 31 on an ITO transparent electroconductive glass was measured. The results correspond to a graph (0 wt %) of FIG. 8. The measurement was made by a fluorophotometer (trade name: RF-5300PC, manufactured by Shimadzu Corporation). The compound 31 emitted blue light having a fluorescent peak wavelength of 422 nm.
First, a fluorescent spectrum obtained when a film formed in a thickness of 41 nm by applying a solution of the compound 32 to the surface of an ITO transparent electroconductive glass by spin coating was excited by 340 nm light was obtained (solid line in FIG. 10). The measurement was made by a fluorophotometer (trade name: RF-5300PC, manufactured by Shimadzu Corporation). Blue light emission having a fluorescent peak wavelength of 424 nm was obtained.
A fluorescent spectrum obtained when a film was formed in the same manner as above by doping the compound 32 with 5 wt % of the compound 2 was measured in the same manner as above. The results are shown by the dotted line in FIG. 10. The fluorescent peak wavelength was 453 nm and pure blue light emission was obtained which was more intensified than the case where the compound 32 was not doped with the compound 2.
Xylene solutions containing only the compound 31, only the compound 33, and a mixture of the compound 31:compound 33:compound 3 (10:2:1 ratio by weight) such that each solid content was 2 wt % were respectively applied to a quarts plate by spin coating (rotated at 500 rpm for 5 sec and then at 1200 rpm for 60 sec) to form films having almost the same thickness, thereby measuring a fluorescent spectrum.

In the case of `Cc1ccc2c(-c3ccccc3-c3ccc(-c4nc(-c5ccc(C(C)(C)C)cc5)nc(-c5ccc(C(C)(C)C)cc5)n4)cc3)c3ccccc3c(-c3ccccc3-c3ccc(-c4nc(-c5ccc(C(C)(C)C)cc5)nc(-c5ccc(C(C)(C)C)cc5)n4)cc3)c2c1` (single isomer, unassigned) [isomer component 1 of the compound 2, 2-methyl-9,10-bis{4-[2,4-bis(4-tert-butylphenyl)-1,3,5-triazine-6-yl]biphenyl-2′-yl}-anthracene], the fluorescent intensity remaining in series [1] is on record as 57 % of the initial intensity. Besides, in series [2], the electron affinity was determined as 2.9 eV and the ionization potential amounted to 5.9 eV. The “solubility (concentration dissolved in toluene)” value in series [3] (toluene) worked out at 34 mg in 1 ml. For the same molecule, the “thermal stability” value in series [4] is “thermally very stable”.

For the molecule `CC(C)(C)c1ccc2c(-c3ccccc3-c3ccccc3)c3ccccc3c(-c3ccccc3-c3ccccc3)c2c1` [TBBPA, 9,10-di(biphenyl-2-yl)-2-t-butylanthracene], in series [5], the “glass transition temperature (Tg) of prior-art material” value was “about 74 °C”.

Regarding `CC(C)(C)c1ccc2c(-c3ccc4ccccc4c3)c3ccccc3c(-c3ccc4ccccc4c3)c2c1` [TBDNA, 9,10-di(2-naphthyl)-2-tertiarybutylanthracene], the “glass transition temperature (Tg) of prior-art material” value in series [5] is “about 128 °C”.

With `CC(C)(C)c1ccc(-c2nc(-c3ccc(-c4ccccc4-c4c5ccccc5c(-c5ccccc5-c5ccc(-c6nc(-c7ccc(C(C)(C)C)cc7)nc(-c7ccc(C(C)(C)C)cc7)n6)cc5)c5ccccc45)cc3)nc(-c3ccc(C(C)(C)C)cc3)n2)cc1` [compound 1, 9,10-bis{4-[2,4-bis(4-tert-butylphenyl)-1,3,5-triazine-6-yl]biphenyl-2′-yl}anthracene], in series [2], the electron affinity is 2.9 eV and 3.0 eV; the ionization potential was found to be 5.9 eV. Besides, the “solubility (concentration dissolved in toluene)” value in series [3] (toluene) turned out to be 1.3 mg in 1 ml. In series [6], the fluorescent peak wavelength is recorded as 448 nm.

Take `Cc1ccc2c(-c3ccccc3-c3ccc(-c4nc(-c5ccc(C(C)(C)C)cc5)nc(-c5ccc(C(C)(C)C)cc5)n4)cc3)c3ccccc3c(-c3ccccc3-c3ccc(-c4nc(-c5ccc(C(C)(C)C)cc5)nc(-c5ccc(C(C)(C)C)cc5)n4)cc3)c2c1` [compound 2, 2-methyl-9,10-bis{4-[2,4-bis(4-tert-butylphenyl)-1,3,5-triazine-6-yl]biphenyl-2′-yl}anthracene]: the Eg entry in series [2] is “about 2.9 eV”. Also, the fluorescent peak wavelength in series [6] amounted to 454 nm.

Take `CC(C)(C)c1ccc(-c2nc(-c3ccc(-c4ccccc4-c4c5ccccc5c(-c5ccccc5-c5ccc(-c6nc(-c7ccc(C(C)(C)C)cc7)nc(-c7ccc(C(C)(C)C)cc7)n6)cc5)c5cc(C(C)(C)C)ccc45)cc3)nc(-c3ccc(C(C)(C)C)cc3)n2)cc1` [compound 3, 2-tert-butyl-9,10-bis{4-[2,4-bis(4-tert-butylphenyl)-1,3,5-triazine-6-yl]biphenyl-2′-yl}anthracene]: the “solubility (concentration dissolved in toluene)” value in series [3] (toluene) worked out at 150 mg in 1 ml. Moreover, the fluorescent peak wavelength in series [6] was determined as 453 nm. For the same molecule, in series [4], the “thermal stability” value is reported as “thermally very stable”.

With `CC(C)(C)c1ccc(-c2nc(-c3ccc(-c4ccc5c(c4)C4(c6ccccc6-5)c5ccccc5-c5ccc(-c6ccc(-c7nc(-c8ccc(C(C)(C)C)cc8)nc(-c8ccc(C(C)(C)C)cc8)n7)cc6)cc54)cc3)nc(-c3ccc(C(C)(C)C)cc3)n2)cc1` [compound 31, 2,2′-bis(4-(2,4-bis(4-tert-butylphenyl)-1,3,5-triazine-6-yl)phenyl)-9,9′-spirobifluorene], in series [1], the fluorescent intensity remaining is recorded as 64 % of the initial intensity. In series [2], this molecule displayed an Eg of 3.2 eV, an electron affinity of 3.0 eV and an ionization potential of 6.2 eV. Further, in series [3] (toluene), the “solubility in organic solvents” value is recorded as “easily soluble” and the “solubility (concentration dissolved in toluene)” value came out at 0.4 g in 1 ml. Moreover, the fluorescent peak wavelength in series [6] was determined as 422 nm. Further, the “thermal stability” value in series [4] is reported as “thermally stable glass-like material”.

In series [2], `Cc1ccc(-c2nc(-c3ccc(C)cc3)nc(-c3ccc(-c4ccc5c(c4)C4(c6ccccc6-5)c5ccccc5-c5ccc(-c6ccc(-c7nc(-c8ccc(C)cc8)nc(-c8ccc(C)cc8)n7)cc6)cc54)cc3)n2)cc1` [compound 32] showed an electron affinity of 3.0 eV and an ionization potential of 6.2 eV. In series [3] (1 ml of toluene, gradually added while heating, returned to ambient temperature), the “amount dissolved after heating on a hot plate and return to ambient temperature” value is listed as 34 mg. In addition, the “solubility (concentration dissolved in toluene)” value in series [3] (toluene) is given as 6 mg in 1 ml. Moreover, in series [6], the fluorescent peak wavelength is 424 nm.

For the molecule `CC(C)(C)c1ccc2c(c1)c1cc(C(C)(C)C)ccc1n2-c1ccc(-c2cc(-c3ccc(-n4c5ccc(C(C)(C)C)cc5c5cc(C(C)(C)C)ccc54)cc3)cc(-c3ccc(-n4c5ccc(C(C)(C)C)cc5c5cc(C(C)(C)C)ccc54)cc3)c2)cc1` [compound 33, 1,3,5-tris(4-(3,6-di-tert-butyl-N-carbazolyl)phenyl)benzene], in series [2], the electron affinity worked out at 2.8 eV and the ionization potential is given as 6.2 eV. The “solubility in organic solvents” value in series [3] (toluene) is “easily soluble”. Moreover, the “amount dissolved in general organic solvent” value in series [3] (toluene, xylene, tetralin or mixture solvent) is ≥ 10 wt %. This molecule showed a fluorescent peak in series [6] (spin coat film from xylene solution on quartz plate) of 380 nm. Also, the “glass transition temperature (Tg)” value in series [4] (DSC, temperature rise rate 20° C./min) worked out at 240 °C.

Values taken from patent US8475940B2, “Anthracene derivative and light-emitting device” (Toppan Printing Co., Ltd., priority 2009, dated 2013).
